From the NIST ThermoML archive (doi:10.1016/j.jct.2016.10.031)
± gives the expanded uncertainty stated by the source.

Experiment: molar heat capacity at constant pressure
Settings: 101.33 kPa, Small (less than 1 g) adiabatic calorimetry

CC(C)(C)c1ccc(Oc2ccc([N+](=O)[O-])cc2)cc1 [1-(tert-butyl)-4-(4-nitrophenoxy)benzene]
Settings | molar heat capacity at constant pressure [J/K/mol]
5 K, Crystal | 1.355 ± 0.14
7.47 K, Crystal | 4.099 ± 0.18
7.73 K, Crystal | 4.357 ± 0.19
7.99 K, Crystal | 4.806 ± 0.21
8.25 K, Crystal | 4.93 ± 0.22
8.5 K, Crystal | 5.379 ± 0.23
8.76 K, Crystal | 5.679 ± 0.25
9 K, Crystal | 6.111 ± 0.27
9.25 K, Crystal | 6.543 ± 0.28
9.5 K, Crystal | 6.718 ± 0.29
9.74 K, Crystal | 6.934 ± 0.3
9.98 K, Crystal | 7.616 ± 0.32
10 K, Crystal | 7.483 ± 0.33
10.29 K, Crystal | 7.94 ± 0.34
10.67 K, Crystal | 8.647 ± 0.37
11.05 K, Crystal | 9.237 ± 0.39
11.43 K, Crystal | 9.903 ± 0.42
11.82 K, Crystal | 10.72 ± 0.46
12.19 K, Crystal | 11.55 ± 0.49
12.56 K, Crystal | 12.15 ± 0.52
12.94 K, Crystal | 12.7 ± 0.53
13.31 K, Crystal | 13.57 ± 0.57
13.67 K, Crystal | 14.33 ± 0.6
14.04 K, Crystal | 15.21 ± 0.64
14.41 K, Crystal | 15.49 ± 0.65
14.78 K, Crystal | 16.59 ± 0.69
15 K, Crystal | 16.88 ± 0.67
15.14 K, Crystal | 17.38 ± 0.72
15.51 K, Crystal | 17.73 ± 0.74
15.87 K, Crystal | 18.62 ± 0.77
16.23 K, Crystal | 19.3 ± 0.8
16.59 K, Crystal | 20.01 ± 0.83
16.95 K, Crystal | 20.59 ± 0.86
17.31 K, Crystal | 21.22 ± 0.88
17.67 K, Crystal | 21.96 ± 0.91
18.02 K, Crystal | 23.17 ± 0.96
18.38 K, Crystal | 23.47 ± 0.96
18.74 K, Crystal | 23.92 ± 0.99
19.09 K, Crystal | 24.86 ± 1
19.44 K, Crystal | 25.53 ± 1
19.8 K, Crystal | 26.14 ± 1.1
20 K, Crystal | 26.69 ± 0.42
20.15 K, Crystal | 27.16 ± 0.46
20.82 K, Crystal | 28.34 ± 0.47
21.6 K, Crystal | 29.77 ± 0.49
22.37 K, Crystal | 31.32 ± 0.52
23.15 K, Crystal | 32.68 ± 0.53
23.93 K, Crystal | 34.2 ± 0.56
24.7 K, Crystal | 35.79 ± 0.57
25 K, Crystal | 36.33 ± 0.58
25.47 K, Crystal | 37.61 ± 0.6
26.25 K, Crystal | 38.45 ± 0.61
27.02 K, Crystal | 40.22 ± 0.63
27.78 K, Crystal | 41.32 ± 0.64
28.55 K, Crystal | 43.04 ± 0.67
29.31 K, Crystal | 44.42 ± 0.68
30 K, Crystal | 45.73 ± 0.75
30.07 K, Crystal | 45.76 ± 0.69
30.84 K, Crystal | 47.58 ± 0.72
31.6 K, Crystal | 48.75 ± 0.72
32.37 K, Crystal | 49.72 ± 0.74
33.14 K, Crystal | 51.08 ± 0.76
33.9 K, Crystal | 52.67 ± 0.78
34.66 K, Crystal | 54.05 ± 0.81
35 K, Crystal | 54.54 ± 0.91
35.42 K, Crystal | 55.3 ± 0.82
36.18 K, Crystal | 57.11 ± 0.85
36.94 K, Crystal | 57.85 ± 0.86
37.7 K, Crystal | 58.97 ± 0.87
38.45 K, Crystal | 60.6 ± 0.9
39.21 K, Crystal | 61.49 ± 0.91
39.97 K, Crystal | 62.88 ± 0.93
40 K, Crystal | 63.11 ± 0.91
40.73 K, Crystal | 64.39 ± 0.6
41.49 K, Crystal | 65.82 ± 0.61
42.25 K, Crystal | 66.47 ± 0.62
43.01 K, Crystal | 68.18 ± 0.63
43.76 K, Crystal | 69.21 ± 0.64
44.52 K, Crystal | 70.63 ± 0.66
45 K, Crystal | 71.17 ± 0.58
45.29 K, Crystal | 71.91 ± 0.67
46.05 K, Crystal | 72.64 ± 0.67
46.81 K, Crystal | 73.61 ± 0.68
47.56 K, Crystal | 75.02 ± 0.69
48.32 K, Crystal | 75.74 ± 0.7
49.08 K, Crystal | 77.04 ± 0.71
49.84 K, Crystal | 77.52 ± 0.72
50 K, Crystal | 77.91 ± 0.75
50.59 K, Crystal | 79.05 ± 0.72
51.35 K, Crystal | 79.22 ± 0.72
52.11 K, Crystal | 79.8 ± 0.73
52.86 K, Crystal | 81.65 ± 0.75
53.62 K, Crystal | 82.43 ± 0.76
54.38 K, Crystal | 83.39 ± 0.75
55.13 K, Crystal | 84.31 ± 0.75
55.89 K, Crystal | 84.81 ± 0.75
56.64 K, Crystal | 85.14 ± 0.75
57.4 K, Crystal | 86.3 ± 0.83
58.15 K, Crystal | 87.8 ± 0.83
58.9 K, Crystal | 88.13 ± 0.83
59.65 K, Crystal | 89.46 ± 0.83
60 K, Crystal | 89.55 ± 0.75
60.41 K, Crystal | 89.8 ± 0.83
61.16 K, Crystal | 91.13 ± 0.83
61.91 K, Crystal | 92.37 ± 0.83
62.66 K, Crystal | 92.46 ± 0.83
63.41 K, Crystal | 94.04 ± 0.83
64.16 K, Crystal | 94.87 ± 0.83
64.91 K, Crystal | 94.78 ± 0.83
65.66 K, Crystal | 96.12 ± 0.91
66.41 K, Crystal | 96.12 ± 0.91
67.16 K, Crystal | 97.94 ± 0.91
67.91 K, Crystal | 97.94 ± 0.91
68.65 K, Crystal | 99.44 ± 0.91
69.4 K, Crystal | 100.27 ± 0.91
70 K, Crystal | 101.19 ± 0.91
70.15 K, Crystal | 102.77 ± 0.91
71.05 K, Crystal | 102.93 ± 0.91
72.11 K, Crystal | 103.85 ± 0.91
73.17 K, Crystal | 104.93 ± 0.91
74.23 K, Crystal | 106.18 ± 1
75.29 K, Crystal | 108.42 ± 1
76.35 K, Crystal | 108.75 ± 1
77.41 K, Crystal | 110.08 ± 1
78.47 K, Crystal | 112 ± 1
79.3 K, Crystal | 112.16 ± 0.67
79.53 K, Crystal | 113.49 ± 1
79.87 K, Glass | 115.9 ± 1.1
80 K, Crystal | 113.16 ± 0.83
80.1 K, Crystal | 112.83 ± 0.67
80.58 K, Crystal | 114.66 ± 0.67
80.67 K, Glass | 116.65 ± 0.67
80.9 K, Crystal | 113.82 ± 0.67
81.47 K, Glass | 117.4 ± 0.67
81.64 K, Crystal | 116.15 ± 0.67
81.71 K, Crystal | 114.66 ± 0.67
82.27 K, Glass | 118.31 ± 0.67
82.51 K, Crystal | 115.4 ± 0.67
82.7 K, Crystal | 116.82 ± 0.67
83.08 K, Glass | 119.23 ± 0.67
83.31 K, Crystal | 116.49 ± 0.67
83.75 K, Crystal | 117.48 ± 0.67
83.88 K, Glass | 120.06 ± 0.67
84.11 K, Crystal | 117.32 ± 0.67
84.68 K, Glass | 120.98 ± 0.67
84.92 K, Crystal | 118.07 ± 0.67
85.48 K, Glass | 121.97 ± 0.67
85.72 K, Crystal | 119.06 ± 0.67
86.29 K, Glass | 122.89 ± 0.75
86.52 K, Crystal | 119.98 ± 0.67
87.09 K, Glass | 123.8 ± 0.75
87.32 K, Crystal | 120.81 ± 0.67
87.89 K, Glass | 124.55 ± 0.75
